Test results taken from ChEMBL document CHEMBL1201862, “PubChem BioAssay data set” (2004).
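In this assay, cells in 96-well plates receive the compound at five concentrations for 48 hours. Endpoints are linearly interpolated between the surrounding concentrations. Abbreviation: GI50, concentration required for 50% inhibition of growth.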 The source made the active and inactive calls. Rule as the data show it: active = GI50 up to about 1.1 µM and inactive = higher.

Experiments:
Assay in all cases: NCI tumour cell line growth inhibition, 48 h
[1] = system: MDA-MB-231
[2] = system: RPMI-8226
[3] = system: SR
[4] = system: DU-145
[5] = system: Malme-3M
[6] = system: HOP-92
[7] = system: MDA-N
[8] = system: SNB-19
[9] = system: M14
[10] = system: SK-OV-3
[11] = system: SF-268
[12] = system: Hs-578T
[13] = system: MCF7
[14] = system: T47D
[15] = system: MDA-MB-435
[16] = system: BT-549
[17] = system: EKVX
[18] = system: CCRF-CEM
[19] = system: NCI-H226
[20] = system: OVCAR-4
[21] = system: A549
[22] = system: CAKI-1
[23] = system: HT-29
[24] = system: RXF 393
[25] = system: MOLT-4
[26] = system: SW-620
[27] = system: NCI/ADR-RES
[28] = system: UACC-62
[29] = system: OVCAR-8
[30] = system: SK-MEL-5
[31] = system: U-251
[32] = system: ACHN
[33] = system: SN12C
[34] = system: SK-MEL-28
[35] = system: SF-539
[36] = system: UACC-257
[37] = system: A498
[38] = system: OVCAR-5
[39] = system: SF-295
[40] = system: NCI-H460
[41] = system: COLO 205
[42] = system: NCI-H522
[43] = system: 786-0
[44] = system: OVCAR-3
[45] = system: LOX IMVI
[46] = system: TK-10
[47] = system: HL-60
[48] = system: K562
[49] = system: SNB-75
[50] = system: HCT-15
[51] = system: HCT-116
[52] = system: KM12
[53] = system: NCI-H23
[54] = system: IGROV-1
[55] = system: PC-3
[56] = system: SK-MEL-2
[57] = system: HOP-62
[58] = system: UO-31

With `CC(C)c1ccccc1[S+]([O-])c1ccccc1C(C)(C)O` (centres undefined) the GI50 [1] was 88.9 µM (inactive), the GI50 [2] was 42.6 µM (inactive) and the GI50 [3] was > 100 µM (inactive). The GI50 [4] was > 100 µM (inactive), the GI50 [5] was > 100 µM (inactive) and the GI50 [6] was > 100 µM (inactive). For the same compound, the GI50 [7] was 57.8 µM (inactive), the GI50 [8] was 37.3 µM (inactive) and the GI50 [9] was > 100 µM (inactive). For the same compound, the GI50 [10] was 30.9 µM (inactive), the GI50 [11] was > 100 µM (inactive) and the GI50 [12] was 50.4 µM (inactive). For the same compound, the GI50 [13] was > 100 µM (inactive), the GI50 [14] was > 100 µM (inactive) and the GI50 [15] was 39.6 µM (inactive). For the same compound, the GI50 [16] was > 100 µM (inactive), the GI50 [17] was > 100 µM (inactive) and the GI50 [18] was > 100 µM (inactive). The GI50 [19] was 21.3 µM (inactive), the GI50 [20] was > 100 µM (inactive) and the GI50 [21] was 44.2 µM (inactive). For the same compound, the GI50 [22] was > 100 µM (inactive), the GI50 [23] was 96.2 µM (inactive) and the GI50 [24] was > 100 µM (inactive). The GI50 [25] was > 100 µM (inactive), the GI50 [26] was > 100 µM (inactive) and the GI50 [27] was 64.6 µM (inactive). For the same compound, the GI50 [28] was > 100 µM (inactive), the GI50 [29] was > 100 µM (inactive) and the GI50 [30] was 27.2 µM (inactive). The GI50 [31] was 18.9 µM (inactive), the GI50 [32] was > 100 µM (inactive) and the GI50 [33] was > 100 µM (inactive). The GI50 [34] was > 100 µM (inactive), the GI50 [35] was > 100 µM (inactive) and the GI50 [36] was > 100 µM (inactive). For the same compound, the GI50 [37] was 20 µM (inactive), the GI50 [38] was 56.2 µM (inactive) and the GI50 [39] was 21.1 µM (inactive). For the same compound, the GI50 [40] was 30.8 µM (inactive), the GI50 [41] was > 100 µM (inactive) and the GI50 [42] was 96.8 µM (inactive). For the same compound, the GI50 [43] was > 100 µM (inactive), the GI50 [44] was > 100 µM (inactive) and the GI50 [45] was 69.5 µM (inactive). For the same compound, the GI50 [46] was > 100 µM (inactive), the GI50 [47] was 82.6 µM (inactive) and the GI50 [48] was 60.4 µM (inactive). The GI50 [49] was 32.3 µM (inactive), the GI50 [50] was 82 µM and the GI50 [51] was > 100 µM (inactive). The GI50 [52] was 30.8 µM (inactive), the GI50 [53] was > 100 µM (inactive) and the GI50 [54] was > 100 µM (inactive). The GI50 [55] was > 100 µM (inactive), the GI50 [56] was 67.6 µM (inactive) and the GI50 [57] was 22.5 µM (inactive).
`C1=Cc2ccccc2C1.C=C(C)c1ccccc1.[N-]=[N+]=Nc1ccccc1` was tested, and the GI50 [58] was > 100 µM (inactive), the GI50 [1] was > 100 µM (inactive) and the GI50 [2] was 80 µM (inactive). For the same compound, the GI50 [3] was > 100 µM (inactive), the GI50 [4] was > 100 µM (inactive) and the GI50 [5] was > 100 µM (inactive). The GI50 [6] was 47.1 µM (inactive), the GI50 [7] was 72.3 µM (inactive) and the GI50 [8] was > 100 µM (inactive). The GI50 [9] was > 100 µM (inactive), the GI50 [10] was > 100 µM (inactive) and the GI50 [11] was > 100 µM (inactive). For the same compound, the GI50 [12] was 39.1 µM (inactive), the GI50 [13] was 31.3 µM (inactive) and the GI50 [14] was 68.5 µM (inactive). The GI50 [15] was 70.6 µM (inactive), the GI50 [16] was > 100 µM (inactive) and the GI50 [17] was 38.5 µM (inactive). The GI50 [19] was 52.1 µM (inactive), the GI50 [20] was > 100 µM (inactive) and the GI50 [21] was > 100 µM (inactive). For the same compound, the GI50 [22] was > 100 µM (inactive), the GI50 [23] was 42.7 µM (inactive) and the GI50 [24] was > 100 µM (inactive). The GI50 [25] was 96.2 µM (inactive), the GI50 [26] was 67.3 µM (inactive) and the GI50 [27] was > 100 µM (inactive). The GI50 [28] was 45.8 µM (inactive), the GI50 [29] was > 100 µM (inactive) and the GI50 [30] was > 100 µM (inactive). The GI50 [31] was 71.3 µM (inactive), the GI50 [32] was > 100 µM (inactive) and the GI50 [33] was > 100 µM (inactive). For the same compound, the GI50 [34] was > 100 µM (inactive), the GI50 [35] was > 100 µM (inactive) and the GI50 [36] was 41 µM (inactive). For the same compound, the GI50 [37] was > 100 µM (inactive), the GI50 [38] was > 100 µM (inactive) and the GI50 [39] was > 100 µM (inactive). The GI50 [40] was 90.4 µM (inactive), the GI50 [41] was > 100 µM (inactive) and the GI50 [42] was 34.3 µM (inactive). For the same compound, the GI50 [43] was > 100 µM (inactive), the GI50 [44] was > 100 µM (inactive) and the GI50 [45] was > 100 µM (inactive). For the same compound, the GI50 [46] was > 100 µM (inactive), the GI50 [47] was 62.4 µM (inactive) and the GI50 [48] was 46.9 µM (inactive). The GI50 [49] was 49 µM (inactive), the GI50 [50] was > 100 µM and the GI50 [51] was 48.3 µM (inactive). The GI50 [52] was 50.5 µM (inactive), the GI50 [53] was > 100 µM (inactive) and the GI50 [54] was > 100 µM (inactive). For the same compound, the GI50 [55] was > 100 µM (inactive), the GI50 [56] was > 100 µM (inactive) and the GI50 [57] was > 100 µM (inactive).
